Assay results reported in publication PMC12754617, “Ruthenium-enhanced curcumin derivatives target tumor growth and cancer-related inflammation in head and neck cancer models” (Frontiers in Oncology, 2025).
Read-outs that look alike come from different tables or passages of the source.

Columns and labels:
[1] = test system: CAL 27; experiment: MTT viability assay; assay type: cell-based, human
Method: (§1) A colorimetric 3-(4,5-dimethylthiazolyl)-2,5-diphenyltetrazolium bromide (MTT) cell metabolic activity assay was used to assess the cytotoxicity of complexes 3 and 4. The cells (described above) were cultured under standard conditions. Cells were seeded in 96-well plates at a density of 10,000 cells per well (200 μL) and allowed to grow for 24 h. The medium was then replaced with medium containing complex 3 or 4 at a concentration ranging from 0 to 200 μM, and the cells were incubated for an additional 24, 48, and 72 h. Subsequently, the medium was replaced with MTT solution, consisting of yellow tetrazolium dye 3-(4,5-dimethylthiazol-2-yl)-2,5-diphenyltetrazolium bromide (Sigma-Aldrich, Merck, Germany), and incubated for 2 h at 37°C. The dye was then removed, and the resulting purple formazan formed in viable cells was dissolved in DMSO, followed by shaking for 30 s. Absorbance was measured at 570 nm using an […] 200 PRO microplate reader (TECAN, Männedorf, Switzerland). All experiments were performed in quadruplicate and repeated three times.
(§2) The cell inhibitory concentration (IC) was calculated using the equation IC = (Acomplex3/complex4 well/mean Acontrol wells) × 100%. The half-maximal inhibitory concentration (IC50) was determined from dose–response curves using GraphPad Prism 10 (GraphPad Software Inc., La Jolla, CA, USA). The selectivity index toward cancer cells was calculated as a ratio of the average IC50 value for HGF to the IC50 value for the corresponding cancer cell line.

[2] = test system: Detroit 562; experiment: MTT viability assay; assay type: cell-based, human
Method: as §1, §2

[3] = test system: FaDu; experiment: MTT viability assay; assay type: cell-based, human
Method: as §1, §2

[4] = test system: HGF; experiment: MTT viability assay; assay type: cell-based, human
Method: as §1, §2

[5] = test system: Hep-2; experiment: MTT viability assay; assay type: cell-based, human
Method: as §1, §2

[6] = test system: KB; experiment: MTT viability assay; assay type: cell-based, human
Method: as §1, §2

[7] = test system: SCC-9; experiment: MTT viability assay; assay type: cell-based, human
Method: as §1, §2

[8] = test system: TR146; experiment: MTT viability assay; assay type: cell-based, human
Method: as §1, §2

[9] = test system: THP1-Blue NF-κB cells; experiment: MTT viability assay of THP1-Blue NF-κB cells; assay type: cell-based; details: concentrations of the NF-κB activity assay, overnight
Method: A total of 20 μL of sterile filtered MTT (Sigma-Aldrich, Merck, Germany) solution (5 mg/mL in PBS) was added to the remaining overnight culture of THP1-Blue NF-κB cells from the above NF-κB activity assay in 96-well plates, which were incubated at 37°C (see above). After 2 h of incubation at 37°C, the supernatant was removed, and the purple formazan product generated in the cells was dissolved by the addition of 100 μL of DMSO to each well. The plates were then gently shaken for 30 s at room temperature to dissolve the precipitates. The absorbance was measured at 570 nm using an […] 200 PRO microplate reader (TECAN, Switzerland) ([43]).

[10] = target: T1, IL-6R (Homo sapiens, UniProt P08887); experiment: ELISA assay IL-6R; assay type: binding; details: 500 pg/mL IL-6R
T1 construct: purchased PeproTech, Thermo Fisher Scientific
Method: Human ELISA kits for IL-6, IL-6R, and IL-8 (Sigma-Aldrich, Merck, Germany) were used to quantify cytokine levels after treatment with complex 3 or 4. Briefly, 96-well plates precoated with specific antibodies were used to capture IL-6, IL-6R, and IL-8 from samples. […] Each sample was supplemented with 500 pg/mL of IL-6/IL-6R/IL-8. Positive control wells contained only the IL-6/IL-6R/IL-8 standard (PeproTech, Thermo Fisher Scientific, Waltham, Massachusetts, USA). […] After incubation, wells were washed, and biotinylated antihuman antibodies were added, followed by washing and addition of HRP-conjugated streptavidin. Finally, the TMB substrate was added to develop a color proportional to the cytokine concentration, and the reaction was stopped with the stop solution. Absorbance was measured at 450 nm using an […] 200 PRO microplate reader (TECAN, Switzerland).

[11] = UV–Vis spectroscopy in PBS (solubility); assay type: physicochemical; details: PBS (PBS:DMSO 99:1), UV–Vis linearity of absorbance
Method: All chemicals were sourced from commercial suppliers and utilized directly without any additional purification steps. Nuclear Magnetic Resonance (NMR) spectra were acquired on a 400-MHz spectrometer (JEOL, Tokyo, Japan) at 25°C. The chemical shifts (δ) are given in parts per million (ppm), with coupling constants (J) measured in hertz (Hz). The ^1H and ^13C NMR shifts are referenced to TMS, and solvent signals from Dimethyl Sulfoxide (DMSO)-d6 (2.50 ppm for ^1H and 39.52 ppm for ^13C) were used as references. Data analysis was performed using MestReNova software (version 14.2.1, Mestrelab Research S.L., Santiago de Compostela, SPAIN). Full assignment was performed using a combination of ^1H, ^13C, correlation spectroscopy (COSY), heteronuclear single quantum coherence (HSQC), and heteronuclear multiple bond correlation (HMBC) experiments. Mass spectrometry was conducted in positive ion mode using electrospray ionization (ESI^+) with a high-resolution hybrid Ion Trap-Orbitrap mass spectrometer (LTQ Orbitrap Velos, Thermo Scientific, Waltham, Massachusetts, USA), Supplementary Figures S21, S22. Detailed NMR spectra for all synthesized products are available in Supplementary Figures S12-S20. […] Characteristic absorption maxima were identified, and their dependence on concentration was evaluated.

[12] = CAL 27, 24 h, read-out: IC50 24h
[13] = CAL 27, 48 h, read-out: IC50 48h
[14] = CAL 27, 72 h, read-out: IC50 72h
[15] = Detroit 562, 24 h, read-out: IC50 24h
[16] = Detroit 562, 48 h, read-out: IC50 48h
[17] = Detroit 562, 72 h, read-out: IC50 72h
[18] = Hep-2, 24 h, read-out: IC50 24h
[19] = Hep-2, 48 h, read-out: IC50 48h
[20] = Hep-2, 72 h, read-out: IC50 72h
[21] = SCC-9, 24 h, read-out: IC50 24h
[22] = SCC-9, 48 h, read-out: IC50 48h
[23] = SCC-9, 72 h, read-out: IC50 72h
[24] = TR146, 24 h, read-out: IC50 24h
[25] = TR146, 48 h, read-out: IC50 48h
[26] = TR146, 72 h, read-out: IC50 72h

T1 sequence (P08887 20-468): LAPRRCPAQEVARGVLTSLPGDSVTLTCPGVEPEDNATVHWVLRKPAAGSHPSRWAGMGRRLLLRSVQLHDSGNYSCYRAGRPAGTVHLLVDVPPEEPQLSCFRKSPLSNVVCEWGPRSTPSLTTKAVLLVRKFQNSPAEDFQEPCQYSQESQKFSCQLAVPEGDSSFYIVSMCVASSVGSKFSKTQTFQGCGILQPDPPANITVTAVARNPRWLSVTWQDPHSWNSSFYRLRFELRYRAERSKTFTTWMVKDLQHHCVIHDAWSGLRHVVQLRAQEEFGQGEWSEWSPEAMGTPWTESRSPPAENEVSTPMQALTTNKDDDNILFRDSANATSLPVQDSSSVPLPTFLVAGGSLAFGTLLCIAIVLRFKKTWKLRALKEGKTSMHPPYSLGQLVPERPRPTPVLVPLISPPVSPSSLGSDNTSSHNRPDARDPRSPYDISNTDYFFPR

| SMILES | IC50 [1, 12] [µM] | IC50 [1, 13] [µM] | IC50 [1, 14] [µM] | IC50 [2, 15] [µM] | IC50 [2, 16] [µM] | IC50 [2, 17] [µM] | IC50 ([3]; 24 h, read-out: IC50 24h) [µM] | IC50 ([3]; 48 h, read-out: IC50 48h) [µM] | IC50 ([3]; 72 h, read-out: IC50 72h) [µM] | IC50 ([4]; 24 h, read-out: IC50 24h) [µM] | IC50 ([4]; 48 h, read-out: IC50 48h) [µM] | IC50 ([4]; 72 h, read-out: IC50 72h) [µM] | IC50 [5, 18] [µM] | IC50 [5, 19] [µM] | IC50 [5, 20] [µM] | IC50 ([6]; 24 h, read-out: IC50 24h) [µM] | IC50 ([6]; 48 h, read-out: IC50 48h) [µM] | IC50 ([6]; 72 h, read-out: IC50 72h) [µM] | IC50 [7, 21] [µM] | IC50 [7, 22] [µM] | also measured |
| --- | --- | --- | --- | --- | --- | --- | --- | --- | --- | --- | --- | --- | --- | --- | --- | --- | --- | --- | --- | --- | --- |
| Cc1ccc(C(C)C)cc1.Cc1ccc(C(C)C)cc1.O=C1C(=Cc2ccnc3ccccc23)COCC1=Cc1ccnc2ccccc12.[Cl][Ru][Cl].[Cl][Ru][Cl] [Complex 3] | 22.5 ± 1.08 | 12.9 ± 2.56 | 6.35 ± 1.75 | 12.3 ± 1.83 | 3.9 ± 0.13 | 3.5 ± 0.11 | 8.65 | 5.75 ± 0.06 | 3.85 ± 0.24 | 20.8 ± 3.95 | 13 ± 0.27 | 9.15 ± 1.2 | 12.7 | 11.1 ± 0.32 | 5.15 ± 0.07 | 14.3 | 10.5 ± 0.43 | 3.7 ± 0.42 | 4.7 | 2.85 ± 0.01 | IC50 [7, 23]: 2.8 ± 0.01 µM; IC50 [8, 24]: 19.7 ± 4.82 µM; IC50 [8, 25]: 11.3 ± 0.78 µM; IC50 [8, 26]: 4.9 ± 0.42 µM; Cytotoxicity in THP1-Blue NF-κB cells (MTT) [9]: Neither complex 3, complex 4, nor curcumin exhibited significant cytotoxicity; Decrease in IL-6R concentration ([10]; 8 μM): about 15%; Solubility in the buffered environment [11]: sufficient solubility |
| Cc1ccc(C(C)C)cc1.Cc1ccc(C(C)C)cc1.O=C1C(=Cc2cccnc2)CCC1=Cc1cccnc1.[Cl][Ru][Cl].[Cl][Ru][Cl] [Complex 4] | 27.1 ± 0.79 | 16.1 ± 0.57 | 33.3 ± 0.65 | 21.7 ± 2.45 | 42.2 ± 0.62 | 18.1 ± 2.63 | 25.9 ± 0.25 | 17.1 ± 2.24 | 21.6 ± 0.73 | 28.2 ± 2.78 | 9 ± 1.68 | 13.9 ± 0.59 | 88 ± 4.03 | 21.2 ± 0.02 | 37.65 ± 0.36 | 20.8 ± 0.77 | 25.2 ± 0.33 | 30.3 ± 0.65 | 14.3 | 16.6 ± 0.71 | IC50 [7, 23]: 3.65 ± 0.4 µM; IC50 [8, 24]: 59.3 ± 3.24 µM; IC50 [8, 25]: 16.8 ± 0.81 µM; IC50 [8, 26]: 18.2 ± 1.07 µM; Cytotoxicity in THP1-Blue NF-κB cells (MTT) [9]: Neither complex 3, complex 4, nor curcumin exhibited significant cytotoxicity; Decrease in IL-6R concentration ([10]; 15 μM): about 15%; Solubility in the buffered environment [11]: sufficient solubility |
